Laboratory results: patent US20250026722A1, “SUBSTITUTED QUINOLINES AS IMPROVED NF-KB-INDUCING KINASE (NIK) INHIBITORS” (YUKIN THERAPEUTICS, priority 2021, published 2025)

Tests used:
A375 cells [1] = experiment: Proliferation assay in A375 cells (confocal imaging after seven days with compound); format: cell-based; settings: Homo sapiens, A-375, 168 h, seven days in the presence of compounds
Protocol: (§1) A375 (American Type Culture Collection; CRL-1619) cells were seeded into 96 well plates (1,200 cells/well; Perkin Elmer; 6005225) and incubated overnight at 37° C., 5% CO2. Compounds prepared in media (Dulbecco's modified Eagle medium+10% foetal bovine serum+1% penicillin/streptomycin) were added to the cells and incubated for four days at 37° C., 5% CO2. Media was then aspirated from the cells and freshly prepared compounds were added to the cells, which were then incubated for a further three days at 37° C., 5% CO2. After a total of seven days in the presence of compounds, media was removed, and the cells were labelled with Hoechst (1 in 1,000; Thermo Fisher; 62249), TOTO™-3 (1 in 10,000; Thermo Fisher; T3604) and SPiDER βGAL (1.0 μM; Sigma-Aldrich; 94433) prepared in Hanks' Balanced Salt Solution supplemented with 1.0 mM HEPES buffer for 20 minutes at 37° C. Cells were imaged by confocal microscopy using an ImageXpress (Molecular Devices) at ×10 magnification. Images were analysed using MetaXpress software (Molecular Devices).

A375 cells [2] = experiment: Senescence assay in A375 cells (SPiDER βGAL labelling, confocal imaging after seven days with compound); format: cell-based; settings: Homo sapiens, A-375, 168 h, seven days in the presence of compounds
Protocol: as §1

NIK [3] = molecular target: T1, NIK (Homo sapiens, UniProt Q99558); experiment: NIK degradation Western-blot experiments in A375 cells; format: cell-based; settings: 10 μM for 72 hrs, 5 μM MG132 during last 4 hours
T1 construct: endogenous in cells; host or cells: A375 cells
T1 sequence (Q99558 whole entry): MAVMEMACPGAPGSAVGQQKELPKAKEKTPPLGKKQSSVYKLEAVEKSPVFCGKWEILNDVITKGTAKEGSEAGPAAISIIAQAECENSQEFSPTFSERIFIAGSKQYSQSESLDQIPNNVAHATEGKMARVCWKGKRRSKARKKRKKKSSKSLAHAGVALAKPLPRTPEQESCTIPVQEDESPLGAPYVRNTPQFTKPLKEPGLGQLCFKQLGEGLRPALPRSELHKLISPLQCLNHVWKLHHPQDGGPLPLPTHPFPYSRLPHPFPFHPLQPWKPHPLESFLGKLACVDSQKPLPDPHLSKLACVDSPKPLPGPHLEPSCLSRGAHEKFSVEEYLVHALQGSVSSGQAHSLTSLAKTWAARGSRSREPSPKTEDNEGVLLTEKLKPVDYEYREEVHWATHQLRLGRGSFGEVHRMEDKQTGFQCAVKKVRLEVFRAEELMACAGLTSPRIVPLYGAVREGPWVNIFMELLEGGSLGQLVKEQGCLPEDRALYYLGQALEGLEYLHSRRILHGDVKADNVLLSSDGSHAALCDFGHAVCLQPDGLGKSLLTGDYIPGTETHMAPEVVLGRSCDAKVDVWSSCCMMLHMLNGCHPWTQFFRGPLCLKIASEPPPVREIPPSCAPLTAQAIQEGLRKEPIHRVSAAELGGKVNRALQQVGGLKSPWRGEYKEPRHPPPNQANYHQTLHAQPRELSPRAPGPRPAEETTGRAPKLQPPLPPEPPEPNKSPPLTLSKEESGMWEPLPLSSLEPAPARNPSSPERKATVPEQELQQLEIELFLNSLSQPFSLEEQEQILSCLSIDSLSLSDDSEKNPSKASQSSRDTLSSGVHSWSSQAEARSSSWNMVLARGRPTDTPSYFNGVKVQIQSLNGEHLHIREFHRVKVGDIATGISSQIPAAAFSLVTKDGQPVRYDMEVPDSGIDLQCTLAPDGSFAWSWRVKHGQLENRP
Protocol: A375 cells were plated in 6-well dishes at 2,000 cells/cm^2. The day after, cells were treated for 72 hrs with compounds of the examples at 10 μM. Cells were treated during the last 4 hours of the treatment period with 5 μM MG132 to inhibit proteasomal degradation. For protein isolation, cells were washed twice with PBS and then lysed using RIPA Buffer (1×) containing protease and phosphatase inhibitors. Following sonication, the lysate was centrifuged at 20,000 g for 10 min at 4° C. and the supernatants were collected and assayed for protein concentration using the BCA kit (Pierce).
Total protein (20 μg) was separated by electrophoresis on 10% SDS-polyacrylamide gels and transferred to PVDF membranes (Millipore). Blocking was performed in Tris-buffer saline containing 3% BSA. Membranes were incubated with the appropriate primary antibodies overnight at 4° C. (NIK, CST #4994, 1/2000) and β-actin (Santa-Cruz, sc-47778, 1/5000). After washing three times, membranes were incubated with horseradish peroxidase-conjugated secondary antibodies for 1 h. Bound antibodies were detected using an enhanced chemiluminescence plus kit (GE Healthcare). NIK degradation was tested and confirmed for the compounds of Examples 3, 4, 5, 6, 10 and 11 (see the corresponding table below). For illustration, the Western blot analysis of NIK degradation in cells treated with the compound of Example 3 (at 10 μM for 72 h) is shown in FIG. 1.

NIK [4] = molecular target: T1, NIK; settings: pan kinase inhibitor, literature; cited from earlier work

Row | IC50 (A375 cells [1]) [nM] | EC50 (A375 cells [2]) [nM] | NIK degradation activity (NIK [3]) | Compound | inhibition of the kinase activity (NIK) (NIK [4])
1 | – | – | confirmed | COCCOc1ccc(Nc2ccnc3cc(OC)ccc23)c(OC)c1 [Example 3, 7-methoxy-N-(2-methoxy-4-(2-methoxyethoxy)phenyl)quinolin-4-amine] | –
2 | – | – | confirmed | COCCOc1ccc(Nc2ccnc3cc(-c4cnn(C)c4)ccc23)c(OC)c1 [Example 4, N-(2-methoxy-4-(2-methoxyethoxy)phenyl)-7-(1-methyl-1H-pyrazol-4-yl)quinolin-4-amine] | –
3 | 205 | 200 | – | COCCOc1ccc(Nc2ccnc3cc(C(F)F)ccc23)c(OC)c1 [Example 9, 7-(difluoromethyl)-N-(2-methoxy-4-(2-methoxyethoxy)phenyl)quinolin-4-amine] | –
4 | 195 | 670 | confirmed | COCCOc1ccc(Nc2ccnc3cc(C)ccc23)c(OC)c1 [Example 10, N-(2-methoxy-4-(2-methoxyethoxy)phenyl)-7-methylquinolin-4-amine] | –
5 | – | – | confirmed | COCCOc1ccc(Nc2ccnc3cc(C4CCN(C)CC4)ccc23)c(OC)c1 [Example 11, N-(2-methoxy-4-(2-methoxyethoxy)phenyl)-7-(1-methylpiperidin-4-yl)quinolin-4-amine] | –

The remaining lines, values behind:

Row | Compound | IC50 (A375 cells [1]) [nM] | EC50 (A375 cells [2]) [nM] | NIK degradation activity (NIK [3]) | inhibition of the kinase activity (NIK) (NIK [4])
6 | COCCOc1ccc(Nc2ccnc3cc(C(F)F)ccc23)cc1 | 1740 | 2310 | – | –
7 | COCCOc1ccc(Nc2ccnc3cc(C)ccc23)cc1 | 1900 | 2460 | – | –
8 | COCCOc1ccc(Nc2ccnc3cc(C4=CCN(C)CC4)ccc23)c(OC)c1 [Example 5, N-(2-methoxy-4-(2-methoxyethoxy)phenyl)-7-(1-methyl-1,2,3,6-tetrahydropyridin-4-yl)quinolin-4-amine] | – | – | confirmed | –
9 | COCCOc1ccc(Nc2ccnc3cc(N4CCN(C)CC4)ccc23)c(OC)c1 [Example 6, N-(2-methoxy-4-(2-methoxyethoxy)phenyl)-7-(4-methylpiperazin-1-yl)quinolin-4-amine] | – | – | confirmed | –
10 | COCCOc1ccc(Nc2ccnc3cc(Cl)ccc23)cc1 [Reference compound (*), 7-chloro-N-(4-(2-methoxyethoxy)phenyl)quinolin-4-amine] | 1690 | 2490 | – | –
11 | COc1ccc(Nc2ccnc3cc(Cl)ccc23)cc1O [Reference compound (**), 7-chloro-N-(3-(hydroxy)-4-(methoxy)phenyl)quinolin-4-amine] | > 10000 | > 10000 | – | –
12 | CN[C@@H]1C[C@H]2O[C@@](C)([C@@H]1OC)n1c3ccccc3c3c4c(c5c6ccccc6n2c5c31)C(=O)NC4 [staurosporine] | – | – | – | micromolar level
